The source of these data is PubChem BioAssay (NCI).

The structures appear in SMILES notation. Values joined by “and” are separate entries in the source; they are usually repeats but may differ in a detail not shown here. Identical values can stand only once.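 Step 1: Grow cells in 96-well plates. Step 2: Expose to compound for 48 hours at 5 concentrations. Step 3: Interpolate endpoints linearly; if unreached, use highest concentration. Abbreviation: GI50, concentration required for 50% inhibition of growth. The concentration for full growth arrest is given as TGI.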 Some results are limits rather than exact numbers.

Among the test systems are SK-OV-3 ovarian; U251 CNS; HOP-92 NSCLC; KM12 colon; SNB-19 CNS; HCC-2998 colon; HOP-62 NSCLC; OVCAR-5 ovarian; NCI-H460 lung; NCI/ADR-RES ovarian.
What all share (assay): NCI anticancer screen, dose series, 48 h

For the molecule `c1ccc(-c2oc(-c3ccccc3)c(CN3CCCCC3)c2CN2CCCCC2)cc1`, the GI50 with SK-OV-3 ovarian is 3.97 µM; in the assay with U251 CNS it was 3.55 µM; in the assay with HOP-92 NSCLC it was 1.48 µM; in the assay on KM12 colon it was 2.9 µM; in the assay with SNB-19 CNS, 2.64 µM; in the assay on HCC-2998 colon, 2.02 µM. Further, the GI50 is 4.69 µM in the assay with HOP-62 NSCLC, 1.82 µM with OVCAR-5 ovarian, 3.25 µM in the assay with NCI-H460 lung and 4.17 µM with NCI/ADR-RES ovarian. The TGI in the assay with SK-OV-3 ovarian is 17 µM; with U251 CNS it was 14.2 µM; in the assay with HOP-92 NSCLC it was 5.89 µM; with KM12 colon, 10.4 µM; in the assay with SNB-19 CNS, 8.72 µM; with HCC-2998 colon it was 4.23 µM. The TGI in the assay with HOP-62 NSCLC turned out to be 21.8 µM; with OVCAR-5 ovarian, 8.85 µM; in the assay on NCI-H460 lung, 14.2 µM; in the assay on NCI/ADR-RES ovarian, 15.9 µM.

For `COc1ccc(-c2cc(-c3ccc(Nc4nc(Nc5ccccc5)nc(Nc5ccc(Cl)cc5)n4)cc3)nc(N)n2)cc1`, the GI50 in the assay on SK-OV-3 ovarian was 22.7 µM; in the assay with U251 CNS it was 8.41 µM; with HOP-92 NSCLC it was 5.28 µM; in the assay with KM12 colon it was 4.72 µM; with SNB-19 CNS, 9.03 µM; with HCC-2998 colon, 12.8 µM. Moreover, the GI50 is 10.3 µM in the assay with HOP-62 NSCLC, 9.72 µM in the assay with OVCAR-5 ovarian, 8.57 µM in the assay with NCI-H460 lung and 37.4 µM in the assay with NCI/ADR-RES ovarian. Also, the TGI in the assay on SK-OV-3 ovarian was more than 50 µM; with U251 CNS, more than 50 µM; in the assay with HOP-92 NSCLC it was 19.3 µM; with KM12 colon it was 45.1 µM; with SNB-19 CNS, 24.6 µM; with HCC-2998 colon it was 35 µM. Also, the TGI with HOP-62 NSCLC is 33.1 µM; in the assay with OVCAR-5 ovarian it was 26.3 µM; in the assay with NCI-H460 lung, 26.7 µM; in the assay on NCI/ADR-RES ovarian, more than 50 µM.

In the case of `O=C1Nc2ccc(Cl)cc2/C1=C\c1c(-c2ccc(Cl)cc2)nc2sc(C3CC3)nn12`, the GI50 with SK-OV-3 ovarian is 2.51 µM; with U251 CNS it was 3.29 µM; in the assay on HOP-92 NSCLC, 2.01 µM; in the assay with KM12 colon, 15.8 µM; in the assay with SNB-19 CNS, 3.59 µM; in the assay on HCC-2998 colon, 6.94 µM. Moreover, the GI50 in the assay on HOP-62 NSCLC is 1.75 µM; in the assay with OVCAR-5 ovarian, 11.7 µM; in the assay with NCI-H460 lung it was 3.89 µM; in the assay on NCI/ADR-RES ovarian it was 2.85 µM. In addition, the TGI in the assay with SK-OV-3 ovarian was 6.64 µM; in the assay with U251 CNS, 13.1 µM; in the assay on HOP-92 NSCLC it was 5.89 µM; in the assay on KM12 colon, more than 100 µM; with SNB-19 CNS it was 16.7 µM; with HCC-2998 colon it was 22.3 µM. In addition, the TGI is 4.21 µM with HOP-62 NSCLC, 42.6 µM with OVCAR-5 ovarian, 14.1 µM in the assay with NCI-H460 lung and 10.2 µM in the assay on NCI/ADR-RES ovarian.

For the molecule `C=C1C[C@H]2C=Nc3cc(OCCCOc4cc5c(cc4OC)C(=O)N4CC(=C)C[C@H]4C=N5)c(OC)cc3C(=O)N2C1`, the GI50 in the assay on SK-OV-3 ovarian is less than 0.0147 µM; with KM12 colon it was 0.0201 µM; in the assay with SNB-19 CNS, 0.00545 µM; in the assay with OVCAR-5 ovarian it was 0.0197 µM and < 0.0205 µM; in the assay on NCI-H460 lung, 0.000277 µM; in the assay with NCI/ADR-RES ovarian, 0.317 µM and 0.0972 µM. Also, the TGI in the assay on SK-OV-3 ovarian was 33.1 µM; with U251 CNS, 3.3 µM; with HOP-92 NSCLC it was 0.151 µM; in the assay with KM12 colon, 0.0722 µM and 0.0169 µM; in the assay with SNB-19 CNS it was 4.39 µM; in the assay with HCC-2998 colon, 0.0143 µM. The TGI is less than 0.215 µM in the assay on HOP-62 NSCLC, 0.544 µM in the assay with NCI-H460 lung and 2.84 µM in the assay on NCI/ADR-RES ovarian.

Regarding `CN(C)c1ccc(/C=C\c2ccnc3ccccc23)cc1`, the GI50 with SK-OV-3 ovarian was 5.25 µM; in the assay on U251 CNS, 9.43 µM; in the assay with HOP-92 NSCLC, 6.23 µM; in the assay with KM12 colon, 3.66 µM; in the assay on SNB-19 CNS it was 10.6 µM; in the assay on HCC-2998 colon it was 6.04 µM. The GI50 was 7.5 µM in the assay with HOP-62 NSCLC, 12.7 µM with OVCAR-5 ovarian, 5.2 µM with NCI-H460 lung and 2.93 µM with NCI/ADR-RES ovarian. Besides, the TGI with SK-OV-3 ovarian was more than 100 µM; in the assay on U251 CNS, more than 100 µM; with HOP-92 NSCLC, 60.4 µM; with KM12 colon, 51 µM; in the assay with SNB-19 CNS, more than 100 µM; with HCC-2998 colon, more than 100 µM. Also, the TGI in the assay with HOP-62 NSCLC is more than 67.9 µM; in the assay with OVCAR-5 ovarian it was more than 100 µM; with NCI-H460 lung, more than 91.8 µM; with NCI/ADR-RES ovarian, more than 58.5 µM.

As to `O=C1NC(=S)S/C1=C\c1cn(-c2ccccc2)nc1-c1ccccc1`, the GI50 in the assay on SK-OV-3 ovarian is 11.9 µM; in the assay on U251 CNS it was 5.54 µM; in the assay with HOP-92 NSCLC, 0.623 µM; with KM12 colon, 6.24 µM; in the assay with SNB-19 CNS it was 6.14 µM; in the assay on HCC-2998 colon, 6.05 µM. In addition, the GI50 with HOP-62 NSCLC is 22.7 µM; with OVCAR-5 ovarian, 14.3 µM; in the assay on NCI-H460 lung, 5.5 µM; with NCI/ADR-RES ovarian it was 4.8 µM. For the same molecule, the TGI is 42.2 µM with SK-OV-3 ovarian; 21.2 µM with U251 CNS; 5.34 µM in the assay with HOP-92 NSCLC; 21.7 µM in the assay with KM12 colon; more than 100 µM in the assay with SNB-19 CNS; 47.1 µM with HCC-2998 colon. In addition, the TGI with HOP-62 NSCLC is 68.4 µM; in the assay with OVCAR-5 ovarian it was 29.6 µM; with NCI-H460 lung, 19.2 µM; with NCI/ADR-RES ovarian it was more than 100 µM.

`CCCn1c2c(c3ccccc3c1=O)C(=O)c1ccccc1-2`: the TGI in the assay on SK-OV-3 ovarian, with U251 CNS, in the assay on HOP-92 NSCLC, with KM12 colon, in the assay with SNB-19 CNS and with HCC-2998 colon was more than 100 µM in each case. In addition, the TGI with HOP-62 NSCLC was more than 79.6 µM; with OVCAR-5 ovarian it was more than 100 µM; in the assay with NCI-H460 lung, more than 100 µM; with NCI/ADR-RES ovarian, more than 100 µM.

With `O=C(CS(=O)(=O)c1nc2ccccc2nc1-c1ccccc1)Nc1ccc(F)cc1`, the GI50 is more than 100 µM in the assay on SK-OV-3 ovarian; 37.9 µM in the assay on U251 CNS; 22.3 µM in the assay on HOP-92 NSCLC; 31 µM with KM12 colon; 98.9 µM in the assay with SNB-19 CNS; 13.3 µM in the assay on HCC-2998 colon. Also, the GI50 is more than 100 µM with HOP-62 NSCLC, more than 100 µM with OVCAR-5 ovarian, 88.8 µM with NCI-H460 lung and 33.7 µM with NCI/ADR-RES ovarian. Besides, the TGI was more than 100 µM in the assay on SK-OV-3 ovarian; more than 100 µM with U251 CNS; more than 100 µM with HOP-92 NSCLC; 97.7 µM with KM12 colon; more than 100 µM in the assay with SNB-19 CNS; 26.9 µM with HCC-2998 colon. Moreover, the TGI with HOP-62 NSCLC, in the assay on OVCAR-5 ovarian, with NCI-H460 lung and in the assay with NCI/ADR-RES ovarian was more than 100 µM throughout.
